Assay results as given in paper PMC12748989 (Nature Communications, 2025).

What was measured:
PBMC = settings: 12.5 µM

Structure (SMILES) | Average (percentage cell inhibition), Dmastoparan MDA-MB231 12.5uM (MDA-MB-231 cells) [%] | Average (percentage cell inhibition), Mastoparan PBMC (PBMC) [%]
CC[C@H](C)[C@H](N)C(=O)N[C@@H](CC(N)=O)C(=O)N[C@@H](CC(C)C)C(=O)N[C@@H](CCCCN)C(=O)N[C@@H](C)C(=O)N[C@@H](CC(C)C)C(=O)N[C@@H](C)C(=O)N[C@@H](C)C(=O)N[C@@H](CC(C)C)C(=O)N[C@@H](CO)C(=O)N[C@@H](CCCCN)C(=O)N[C@@H](CCCCN)C(=O)N[C@H](C(=O)N[C@@H](CC(C)C)C(N)=O)[C@@H](C)CC [S10] | 30.5653 | 1.271
CC[C@H](C)[C@H](N)C(=O)N[C@@H](CC(N)=O)C(=O)N[C@@H](CC(C)C)C(=O)N[C@@H](CCCCN)C(=O)N[C@@H](C)C(=O)N[C@@H](CC(C)C)C(=O)N[C@@H](C)C(=O)N[C@@H](C)C(=O)N[C@@H](CC(C)C)C(=O)N[C@@H](C)C(=O)N[C@@H](CO)C(=O)N[C@@H](CCCCN)C(=O)N[C@H](C(=O)N[C@@H](CC(C)C)C(N)=O)[C@@H](C)CC [S11] | 28.2862 | 3.714
CC[C@H](C)[C@H](N)C(=O)N[C@@H](CC(N)=O)C(=O)N[C@@H](CC(C)C)C(=O)N[C@@H](CCCCN)C(=O)N[C@@H](C)C(=O)N[C@@H](CC(C)C)C(=O)N[C@@H](C)C(=O)N[C@@H](C)C(=O)N[C@@H](CC(C)C)C(=O)N[C@@H](C)C(=O)N[C@@H](CCCCN)C(=O)N[C@@H](CO)C(=O)N[C@H](C(=O)N[C@@H](CC(C)C)C(N)=O)[C@@H](C)CC [S12] | 38.966 | 1.96
CC[C@H](C)[C@H](N)C(=O)N[C@@H](CC(N)=O)C(=O)N[C@@H](CC(C)C)C(=O)N[C@@H](CCCCN)C(=O)N[C@@H](C)C(=O)N[C@@H](CC(C)C)C(=O)N[C@@H](C)C(=O)N[C@@H](C)C(=O)N[C@@H](CC(C)C)C(=O)N[C@@H](C)C(=O)N[C@@H](CCCCN)C(=O)N[C@@H](CCCCN)C(=O)N[C@@H](CO)C(=O)N[C@@H](CC(C)C)C(N)=O [S13] | 39.6113 | -6.27
CC[C@H](C)[C@H](N)C(=O)N[C@@H](CC(N)=O)C(=O)N[C@@H](CC(C)C)C(=O)N[C@@H](CCCCN)C(=O)N[C@@H](C)C(=O)N[C@@H](CC(C)C)C(=O)N[C@@H](C)C(=O)N[C@@H](C)C(=O)N[C@@H](CC(C)C)C(=O)N[C@@H](C)C(=O)N[C@@H](CCCCN)C(=O)N[C@@H](CCCCN)C(=O)N[C@H](C(=O)N[C@@H](CO)C(N)=O)[C@@H](C)CC [S14] | 38.8299 | -3.76
CC[C@H](C)[C@H](NC(=O)[C@H](CCCCN)NC(=O)[C@H](CCCCN)NC(=O)[C@H](C)NC(=O)[C@H](CC(C)C)NC(=O)[C@H](C)NC(=O)[C@H](C)NC(=O)[C@H](CC(C)C)NC(=O)[C@H](C)NC(=O)[C@H](CCCCN)NC(=O)[C@H](CC(C)C)NC(=O)[C@H](CC(N)=O)NC(=O)[C@@H](N)[C@@H](C)O)C(=O)N[C@@H](CC(C)C)C(N)=O [T1] | 37.2219 | 14.7113
CC[C@H](C)[C@H](N)C(=O)N[C@H](C(=O)N[C@@H](CC(C)C)C(=O)N[C@@H](CCCCN)C(=O)N[C@@H](C)C(=O)N[C@@H](CC(C)C)C(=O)N[C@@H](C)C(=O)N[C@@H](C)C(=O)N[C@@H](CC(C)C)C(=O)N[C@@H](C)C(=O)N[C@@H](CCCCN)C(=O)N[C@@H](CCCCN)C(=O)N[C@H](C(=O)N[C@@H](CC(C)C)C(N)=O)[C@@H](C)CC)[C@@H](C)O [T2] | 59.8803 | 20.7916
CC[C@H](C)[C@H](N)C(=O)N[C@@H](CC(N)=O)C(=O)N[C@H](C(=O)N[C@@H](CCCCN)C(=O)N[C@@H](C)C(=O)N[C@@H](CC(C)C)C(=O)N[C@@H](C)C(=O)N[C@@H](C)C(=O)N[C@@H](CC(C)C)C(=O)N[C@@H](C)C(=O)N[C@@H](CCCCN)C(=O)N[C@@H](CCCCN)C(=O)N[C@H](C(=O)N[C@@H](CC(C)C)C(N)=O)[C@@H](C)CC)[C@@H](C)O [T3] | 21.7833 | 8.955
